From ChEMBL document CHEMBL5137017, “Identification of NVP-CLR457 as an Orally Bioavailable Non-CNS-Penetrant pan-Class IA Phosphoinositol-3-Kinase Inhibitor” (J Med Chem, 2022)

How the values were obtained:
[1] = Dose normalized AUC in Sprague-Dawley rat at 30 mg/kg, po measured upto 24 hrs by LC-MS/MS analysis; format: ADME, organism-based; settings: in vivo
[2] = Half life in OF1 mouse at 10 mg/kg,po or 3 mg/kg,iv measured upto 24 hrs by LC-MS/MS analysis; format: ADME, organism-based; settings: in vivo
[3] = Drug concentration in OF1 mouse brain at 1 mg/kg, iv measured at 5 mins post dose by LC-MS/MS analysis; format: ADME, organism-based; settings: in vivo
[4] = Minimal apparent permeability across apical to basolateral side in human Caco-2 cells at 0.25 to 30 uM measured after 120 mins by LC-MS/MS analysis; format: ADME, cell-based; settings: dose 0.25-30 µM
[5] = Tmax in OF1 mouse at 10 mg/kg,po or 3 mg/kg,iv measured upto 24 hrs by LC-MS/MS analysis; format: ADME, organism-based; settings: in vivo
[6] = Effect on blood glucose level in athymic nude mouse xenografted with rat Rat1 cells expressing myr-p110alpha at 3 to 20 mg/kg, po qd measured upto 14 hrs by glucometer analysis; format: toxicity, organism-based; settings: in vivo, dose 3-20 mg/kg
[7] = Drug concentration in OF1 mouse blood at 1 mg/kg, iv measured at 5 mins post dose by LC-MS/MS analysis; format: ADME, organism-based; settings: whole blood, read-out: Ct
[8] = Effect on blood glucose level in athymic nude mouse xenografted with rat Rat1 cells expressing myr-p110alpha at 20 mg/kg, po bid measured upto 14 hrs by glucometer analysis; format: toxicity, organism-based; settings: in vivo
[9] = Oral bioavailability in Sprague-Dawley rat at 3 mg/kg measured for 0.25 to 24 hrs by LC-MS/MS analysis; format: ADME, organism-based; settings: in vivo, time 0.25-24 hrs
[10] = Brain to blood ratio in OF1 mouse at 1 mg/kg, iv measured at 5 mins post dose by LC-MS/MS analysis; format: ADME, organism-based; settings: brain and blood, read-out: BBR
[11] = Half life in Sprague-Dawley rat at 3 mg/kg, po or iv measured upto 24 hrs by LC-MS/MS analysis; format: ADME, organism-based; settings: in vivo
[12] = Cmax in Beagle dog at 5.4 mg/kg, po measured upto 24 hrs using PVP-ASD form of sample by LC-MS/MS analysis; format: ADME, organism-based, Canis lupus familiaris; parameters: dose 5.4 mg/kg, time < 24 hrs, route po; settings: in vivo
Caco-2 = assay: Nonspecific permeability coefficient in human Caco-2 cells at 0.25 to 30 uM measured after 120 mins by LC-MS/MS analysis; format: ADME, cell-based; settings: caco-2, 2 h, dose 0.25-30 µM
[13] = Dose normalized AUC(0 to Tlast) in athymic nude mouse xenografted with rat Rat1 cells expressing myr-p110alpha at 10 mg/kg, po measured after 8 days by LC-MS/MS analysis; format: ADME, organism-based; settings: in vivo, 192 h, time 8 day
[14] = Plasma protein binding in OF1 mouse plasma at 10 mg/kg,po or 3 mg/kg,iv measured after 4 hrs by rapid equilibrium dialysis method; format: ADME, organism-based; settings: read-out: PPB (converted)
[15] = Inhibition of wild type PI3K in human HCC1806 cells assessed as reduction in phosphorylation of AKT at Ser473 residue by Western blot analysis; format: cell-based
[16] = Brain to blood ratio in OF1 mouse at 1 mg/kg, iv measured at 1 hr post dose by LC-MS/MS analysis; format: ADME, organism-based; settings: brain and blood, read-out: BBR
[17] = Stability in mouse liver microsomes assessed as hepatic extraction preincubated for 3 mins followed by NADPH addition and measured after 60 mins; format: ADME, Microsome; settings: time 63 min, read-out: ERH
[18] = Toxicity in athymic nude mouse xenografted with rat Rat1 cells expressing myr-p110alpha assessed as body weight change at 20 mg/kg,po qd measured after 14 to 22 days; format: organism-based; settings: in vivo, time 14-22 day
[19] = Toxicity in athymic nude mouse xenografted with rat Rat1 cells expressing myr-p110delta assessed as drug tolerance at 20 mg/kg, po bid measured for 7 to 15 days; format: organism-based; settings: in vivo, time 7-15 day
[20] = Inhibition of PI3K PTEN mutant in human MDA-MB-468 cells assessed as reduction in phosphorylation of AKT at Ser473 residue by Western blot analysis; format: cell-based
[21] = Dose normalized AUC in Sprague-Dawley rat at 100 mg/kg, po measured upto 24 hrs by LC-MS/MS analysis; format: ADME, organism-based; settings: in vivo
[22] = Dose normalized AUC in OF1 mouse plasma at 3 mg/kg, iv measured upto 24 hrs by LC-MS/MS analysis; format: ADME, organism-based; settings: in vivo
[23] = Stability in rat liver microsomes assessed as hepatic extraction preincubated for 3 mins followed by NADPH addition and measured after 60 mins; format: ADME, Microsome; settings: read-out: ERH
[24] = Volume of distribution at steady state in Sprague-Dawley rat at 3 mg/kg, po or iv measured upto 24 hrs by LC-MS/MS analysis; format: ADME, organism-based; settings: in vivo
[25] = Plasma protein binding in beagle dog plasma at 0.3 mg/kg,po or 0.1 mg/kg,iv measured after 4 hrs by rapid equilibrium dialysis method; format: ADME, organism-based, Canis lupus familiaris; settings: read-out: PPB (converted)
[26] = AUC in Sprague-Dawley rat at 1 mg/kg, iv measured for 0.083 to 48 hrs by LC-MS/MS analysis; format: ADME, organism-based; parameters: time upper 48 hrs, dose 1 mg/kg, time lower 0.083 hrs, route iv; settings: in vivo
[27] = Dose normalized AUC in beagle dog at 0.3 mg/kg, po measured upto 24 hrs by LC-MS/MS analysis; format: ADME, organism-based, Canis lupus familiaris; settings: in vivo
[28] = Inhibition of PI3K PTEN mutant in human MDA-MB-436 cells assessed as reduction in phosphorylation of AKT at Ser473 residue by Western blot analysis; format: cell-based
[29] = Oral bioavailability in OF1 mouse plasma at 10 mg/kg measured upto 24 hrs by LC-MS/MS analysis; format: ADME, organism-based
[30] = Inhibition of wild type PI3K in human Hs-578T cells assessed as reduction in phosphorylation of AKT at Ser473 residue by Western blot analysis; format: cell-based
Rat1 [31] = assay: Antitumor activity at rat Rat1 cells expressing myr-p110alpha xenografted in athymic nude mouse assessed as T/C ratio at 20 mg/kg, po bid measured after 15 to 24 days; format: functional; settings: time 15-24 day
[32] = Inhibition of PI3K PTEN mutant in human HCC1395 cells assessed as reduction in phosphorylation of AKT at Ser473 residue by Western blot analysis; format: cell-based
[33] = In vivo Inhibition of AKT phosphorylation at Ser473 residue in plasma of athymic nude mouse xenografted with rat Rat1 cells expressing myr-p110alpha; format: functional, organism-based
Rat1 [34] = assay: Antitumor activity at rat Rat1 cells expressing myr-p110alpha xenografted in athymic nude mouse assessed as T/C ratio at 3 mg/kg, po qd measured after 14 to 22 days; format: functional; settings: time 14-22 day
[35] = Half life in beagle dog at 0.3 mg/kg,po or 0.1 mg/kg,iv measured upto 24 hrs by LC-MS/MS analysis; format: ADME, organism-based, Canis lupus familiaris; settings: in vivo
[36] = Inhibition of wild type PI3K in human HCC1143 cells assessed as reduction in phosphorylation of AKT at Ser473 residue by Western blot analysis; format: cell-based
[37] = Cmax in OF1 mouse at 10 mg/kg,po or 3 mg/kg,iv measured upto 24 hrs by LC-MS/MS analysis; format: ADME, organism-based; parameters: time < 24 hrs, dose 10 mg/kg, route po; settings: in vivo

AUC/dose [1]: 913 nM·h
half-life [2]: 2 h
Ct [3]: 67 pmol/g
Papp A→B at 2 h, up to 30 µM [4]: 2.5 ×10⁻⁶ cm/s
Tmax [5]: 0.5 h
concentration at 5 min [7]: 3.04 µM
bioavailability [9]: 97%
Kp at 5 min [10]: 0.02
half-life [11]: 3.3 h
Cmax [12]: 10.7 µM
Pm (Caco-2): 73 10^-5 cm/min
AUC/dose [13]: 1.57 µM·h
fraction unbound at 4 h [14]: 0.24
IC50 [15]: 204 nM
Kp at 1 h [16]: 0.05
hepatic extraction ratio at 1 h [17]: 0.34
IC50 [20]: 263 nM
AUC/dose [21]: 784 nM·h
AUC/dose [22]: 3580 nM·h
hepatic extraction ratio at 1 h [23]: 0.35
Vdss [24]: 4.4 L/kg
fraction unbound at 4 h [25]: 0.29
AUC [26]: 1.77 µM·h
AUC/dose [27]: 12970 nM·h
IC50 [28]: 179 nM
bioavailability [29]: 49%
IC50 [30]: 27 nM
IC50 [32]: 169 nM
IC50 ([33]; Mus musculus): 200 nM
half-life [35]: 11 h
IC50 [36]: 26 nM
Cmax [37]: 0.422 µM
SMILES: C[C@H]1OC(=O)N(c2nc(-c3cnc(N)nc3C(F)(F)F)cc(N3CCOCC3)n2)[C@H]1CO
Activity [6]: Non-Toxic
Activity [8]: Non-Toxic
Activity [18]: Non-Toxic
Activity [19]: Toxic
T/C (Rat1 [31]): -0.8
IC80 [33]: 800 nM
T/C (Rat1 [34]): 0.43
